Laboratory results published in publication PMC8500670, “A selective WDR5 degrader inhibits acute myeloid leukemia in patient-derived mouse models” (Science translational medicine, 2021).

Legend:
Assay in all cases: biochemical
Parameters in all cases: protein methyltransferase inhibition panel, single concentration, duplicate
[1] = biological target: T1, G9a (Homo sapiens, UniProt Q96KQ7)
T1 construct: gene EHMT2
T1 sequence (Q96KQ7 1-1210): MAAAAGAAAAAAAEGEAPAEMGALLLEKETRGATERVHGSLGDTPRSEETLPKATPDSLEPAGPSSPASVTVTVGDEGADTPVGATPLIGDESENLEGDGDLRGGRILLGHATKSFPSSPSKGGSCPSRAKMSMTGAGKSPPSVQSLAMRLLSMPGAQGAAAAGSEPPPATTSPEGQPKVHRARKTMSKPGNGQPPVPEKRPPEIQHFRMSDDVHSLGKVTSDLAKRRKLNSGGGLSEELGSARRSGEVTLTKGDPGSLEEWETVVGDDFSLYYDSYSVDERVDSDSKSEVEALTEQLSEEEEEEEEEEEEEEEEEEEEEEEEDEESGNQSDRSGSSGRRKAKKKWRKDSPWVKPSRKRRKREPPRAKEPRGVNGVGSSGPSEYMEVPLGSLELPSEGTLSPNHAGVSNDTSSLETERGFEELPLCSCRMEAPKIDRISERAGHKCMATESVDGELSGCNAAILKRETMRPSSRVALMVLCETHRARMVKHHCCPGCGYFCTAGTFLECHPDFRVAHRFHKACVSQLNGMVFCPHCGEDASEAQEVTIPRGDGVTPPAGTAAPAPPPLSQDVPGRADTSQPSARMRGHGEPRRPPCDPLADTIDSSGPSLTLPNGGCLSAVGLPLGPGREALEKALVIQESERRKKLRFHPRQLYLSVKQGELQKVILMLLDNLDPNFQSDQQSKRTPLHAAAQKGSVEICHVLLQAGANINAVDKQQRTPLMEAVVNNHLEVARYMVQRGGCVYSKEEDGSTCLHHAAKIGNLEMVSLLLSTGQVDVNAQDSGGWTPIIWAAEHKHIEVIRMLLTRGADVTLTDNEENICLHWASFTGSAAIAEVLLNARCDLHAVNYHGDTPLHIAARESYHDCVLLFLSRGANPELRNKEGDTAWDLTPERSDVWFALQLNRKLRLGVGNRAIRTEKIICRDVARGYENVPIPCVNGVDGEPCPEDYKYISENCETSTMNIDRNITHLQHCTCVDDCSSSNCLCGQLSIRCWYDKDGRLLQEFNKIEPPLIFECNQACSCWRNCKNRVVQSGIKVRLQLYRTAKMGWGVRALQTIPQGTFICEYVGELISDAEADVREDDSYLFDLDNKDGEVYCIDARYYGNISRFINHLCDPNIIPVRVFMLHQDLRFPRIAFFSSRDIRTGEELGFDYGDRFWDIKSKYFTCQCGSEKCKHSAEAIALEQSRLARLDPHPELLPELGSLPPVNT
Experimental: (§1) We next assessed selectivity of MS67 against 22 protein methyltransferases (table S2) and a broad panel of common drug targets including 45 kinases (table S3) and 44 G protein–coupled receptors (GPCR), ion channels, and transporters (table S4). […] We subsequently determined that MS67 had moderate binding affinity (Ki = 1.0 ± 0.8 μM) to Sigma 2 receptor (fig. S10).

[2] = biological target: T2, SUV39H1 (Homo sapiens, UniProt O43463)
T2 sequence (O43463 1-412): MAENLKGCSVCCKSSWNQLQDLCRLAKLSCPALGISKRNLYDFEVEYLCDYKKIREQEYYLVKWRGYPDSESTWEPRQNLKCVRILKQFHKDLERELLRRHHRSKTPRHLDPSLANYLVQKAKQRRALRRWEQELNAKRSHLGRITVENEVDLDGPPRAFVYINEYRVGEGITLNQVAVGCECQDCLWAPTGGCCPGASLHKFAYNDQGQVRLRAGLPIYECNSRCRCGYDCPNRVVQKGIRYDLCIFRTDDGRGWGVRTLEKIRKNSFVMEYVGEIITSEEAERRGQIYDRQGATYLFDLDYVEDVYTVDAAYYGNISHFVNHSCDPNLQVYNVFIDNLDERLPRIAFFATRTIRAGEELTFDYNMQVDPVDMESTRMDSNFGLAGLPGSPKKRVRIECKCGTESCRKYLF
Experimental: as §1

[3] = biological target: T3, SET8 (Homo sapiens, UniProt Q9NQR1)
T3 construct: gene KMT5A
T3 sequence (Q9NQR1 1-393): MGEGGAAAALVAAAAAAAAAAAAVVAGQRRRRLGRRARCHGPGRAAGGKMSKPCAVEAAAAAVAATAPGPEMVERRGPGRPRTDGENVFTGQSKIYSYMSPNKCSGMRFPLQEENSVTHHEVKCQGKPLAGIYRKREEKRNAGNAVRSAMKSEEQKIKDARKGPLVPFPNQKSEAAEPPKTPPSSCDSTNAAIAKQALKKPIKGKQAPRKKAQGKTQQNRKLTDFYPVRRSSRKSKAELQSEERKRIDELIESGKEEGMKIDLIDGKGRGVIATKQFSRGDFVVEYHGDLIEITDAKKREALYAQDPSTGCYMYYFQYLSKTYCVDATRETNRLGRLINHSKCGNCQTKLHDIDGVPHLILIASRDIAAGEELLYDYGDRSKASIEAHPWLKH
Experimental: as §1

[4] = biological target: T4, PRMT7 (Homo sapiens, UniProt Q9NVM4)
T4 sequence (Q9NVM4 1-692): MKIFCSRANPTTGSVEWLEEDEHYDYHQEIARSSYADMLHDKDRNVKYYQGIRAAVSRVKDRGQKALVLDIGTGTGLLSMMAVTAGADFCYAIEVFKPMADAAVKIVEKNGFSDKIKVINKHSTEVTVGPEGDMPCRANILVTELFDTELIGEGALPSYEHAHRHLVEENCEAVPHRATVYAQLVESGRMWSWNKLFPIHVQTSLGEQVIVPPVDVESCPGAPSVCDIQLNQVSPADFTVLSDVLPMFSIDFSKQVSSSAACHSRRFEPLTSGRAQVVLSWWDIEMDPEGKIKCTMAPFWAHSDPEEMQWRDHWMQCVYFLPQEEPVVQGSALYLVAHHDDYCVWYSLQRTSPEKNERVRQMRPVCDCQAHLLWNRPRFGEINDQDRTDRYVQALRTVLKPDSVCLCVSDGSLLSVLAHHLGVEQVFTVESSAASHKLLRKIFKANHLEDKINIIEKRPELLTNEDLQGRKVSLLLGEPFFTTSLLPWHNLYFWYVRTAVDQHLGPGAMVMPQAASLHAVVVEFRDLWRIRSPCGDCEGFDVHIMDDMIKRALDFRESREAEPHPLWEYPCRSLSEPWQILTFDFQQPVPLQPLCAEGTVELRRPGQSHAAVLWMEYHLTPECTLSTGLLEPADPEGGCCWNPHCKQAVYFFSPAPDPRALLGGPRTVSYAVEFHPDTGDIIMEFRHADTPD
Experimental: as §1

Measured: inhibition at 10 µM

Cc1ncsc1-c1ccc([C@H](C)NC(=O)[C@@H]2C[C@@H](O)CN2C(=O)[C@@H](NC(=O)CNC(=O)c2ccc(F)c(-c3ccc(N4C[C@@H](C)N(C)[C@@H](C)C4)c(NC(=O)c4c[nH]c(=O)cc4C(F)(F)F)c3)c2)C(C)(C)C)cc1 [MS67]
< 10%: all assays above
